Results: patent publication US10500318B1, “Dosing regimens for treating hypoxia-associated tissue damage” (Temple Therapeutics BV, priority 2018, dated 2019)
Residues, ends and D or L forms follow the SMILES beside them.

Experiments:
[1] = at room temperature; cited from earlier work
HIF-1α = HIF-1α ELISA in normal peritoneal fibroblasts after episodic hypoxia and Ala-Gln treatment; type: cell-based; conditions: for HIF-1α 12 hours after hypoxia initiation / HIF-1α 24 hours after hypoxia initiation: NPF
Description: Primary cultures of normal peritoneal fibroblasts (NPF) were established and pre-hypoxia samples were taken to determine levels of HIF-1α and Type 1 Collagen (COL1A1) under normoxic conditions prior to exposure to episodic hypoxic environments. Cultured cells were exposed to episodes of hypoxia (2% 02; 0.5, 1, 2, or 4, […] hours), followed by restoration of normoxia (20% O2) and immediate treatment with Ala-[…], 1, 2, or 10 mM). Levels of HIF-1α and COL1A1 were measured at 12 hours and 24 hours following the initiation of hypoxia. All treatments were completed in triplicate. HIF-1α and COL1A1 levels were determined by ELISA (HIF-1α ELISA (ThermoFisher Scientific) or COL1A1 ELISA (LifeSpan Biosciences), respectively, per the manufacturer's protocol). Data were analyzed with one-way ANOVA followed by Tukey's tests with Bonferroni correction. Results for HIF-1α are in Tables 1-3.

## NC(=O)CC[C@H](N)C(=O)O [L-glutamine]
[1]
  water solubility: about 40 g/L

## C[C@H](N)C(=O)N[C@@H](CCC(N)=O)C(=O)O [AG, L-alanyl-L-glutamine] (H-Ala-Gln-OH)
HIF-1α; AG 1.0 mM, 12 h post hypoxia initiation, hypoxia time 0.5 h
  HIF-1α difference from untreated controls: 3.6 pg/mg protein
HIF-1α; AG 1.0 mM, 12 h post hypoxia initiation, hypoxia time 1.0 h
  HIF-1α difference from untreated controls: 2.3 pg/mg protein
HIF-1α; AG 1.0 mM, 12 h post hypoxia initiation, hypoxia time 2.0 h
  HIF-1α difference from untreated controls: 2.4 pg/mg protein
HIF-1α; AG 1.0 mM, 12 h post hypoxia initiation, hypoxia time 4.0 h
  HIF-1α difference from untreated controls: 0.9 pg/mg protein
HIF-1α; AG 1.0 mM, 24 h post hypoxia initiation, hypoxia time 0.5 h
  HIF-1α difference from untreated controls: 1.6 pg/mg protein
HIF-1α; AG 1.0 mM, 24 h post hypoxia initiation, hypoxia time 1.0 h
  HIF-1α difference from untreated controls: 3.1 pg/mg protein
HIF-1α; AG 1.0 mM, 24 h post hypoxia initiation, hypoxia time 2.0 h
  HIF-1α difference from untreated controls: 1.8 pg/mg protein
HIF-1α; AG 1.0 mM, 24 h post hypoxia initiation, hypoxia time 4.0 h
  HIF-1α difference from untreated controls: 0.7 pg/mg protein
HIF-1α; AG 1.0 mM, hypoxia time 0.5 h
  HIF-1α 12 hours after hypoxia initiation: 4.2 pg/mg protein
  HIF-1α 24 hours after hypoxia initiation: 3.6 pg/mg protein
HIF-1α; AG 1.0 mM, hypoxia time 1.0 h
  HIF-1α 12 hours after hypoxia initiation: 4.6 pg/mg protein
  HIF-1α 24 hours after hypoxia initiation: 4.6 pg/mg protein
HIF-1α; AG 1.0 mM, hypoxia time 2.0 h
  HIF-1α 12 hours after hypoxia initiation: 3.3 pg/mg protein
  HIF-1α 24 hours after hypoxia initiation: 3.3 pg/mg protein
HIF-1α; AG 1.0 mM, hypoxia time 4.0 h
  HIF-1α 12 hours after hypoxia initiation: 4.9 pg/mg protein
  HIF-1α 24 hours after hypoxia initiation: 4.9 pg/mg protein
HIF-1α; AG 2.0 mM, 12 h post hypoxia initiation, hypoxia time 0.5 h
  HIF-1α difference from untreated controls: 3.1 pg/mg protein
HIF-1α; AG 2.0 mM, 12 h post hypoxia initiation, hypoxia time 1.0 h
  HIF-1α difference from untreated controls: 4.5 pg/mg protein
HIF-1α; AG 2.0 mM, 12 h post hypoxia initiation, hypoxia time 2.0 h
  HIF-1α difference from untreated controls: 2.5 pg/mg protein
HIF-1α; AG 2.0 mM, 12 h post hypoxia initiation, hypoxia time 4.0 h
  HIF-1α difference from untreated controls: 1.4 pg/mg protein
HIF-1α; AG 2.0 mM, 24 h post hypoxia initiation, hypoxia time 0.5 h
  HIF-1α difference from untreated controls: 1.1 pg/mg protein
HIF-1α; AG 2.0 mM, 24 h post hypoxia initiation, hypoxia time 1.0 h
  HIF-1α difference from untreated controls: 5.3 pg/mg protein
HIF-1α; AG 2.0 mM, 24 h post hypoxia initiation, hypoxia time 2.0 h
  HIF-1α difference from untreated controls: 1.9 pg/mg protein
HIF-1α; AG 2.0 mM, 24 h post hypoxia initiation, hypoxia time 4.0 h
  HIF-1α difference from untreated controls: 1.2 pg/mg protein
HIF-1α; AG 2.0 mM, hypoxia time 0.5 h
  HIF-1α 12 hours after hypoxia initiation: 4.7 pg/mg protein
  HIF-1α 24 hours after hypoxia initiation: 4.1 pg/mg protein
HIF-1α; AG 2.0 mM, hypoxia time 1.0 h
  HIF-1α 12 hours after hypoxia initiation: 2.4 pg/mg protein
  HIF-1α 24 hours after hypoxia initiation: 2.4 pg/mg protein
HIF-1α; AG 2.0 mM, hypoxia time 2.0 h
  HIF-1α 12 hours after hypoxia initiation: 3.2 pg/mg protein
  HIF-1α 24 hours after hypoxia initiation: 3.2 pg/mg protein
HIF-1α; AG 2.0 mM, hypoxia time 4.0 h
  HIF-1α 12 hours after hypoxia initiation: 4.4 pg/mg protein
  HIF-1α 24 hours after hypoxia initiation: 4.4 pg/mg protein
HIF-1α; AG 10.0 mM, 12 h post hypoxia initiation, hypoxia time 0.5 h
  HIF-1α difference from untreated controls: 2.6 pg/mg protein
HIF-1α; AG 10.0 mM, 12 h post hypoxia initiation, hypoxia time 1.0 h
  HIF-1α difference from untreated controls: 3.0 pg/mg protein
HIF-1α; AG 10.0 mM, 12 h post hypoxia initiation, hypoxia time 2.0 h
  HIF-1α difference from untreated controls: 1.6 pg/mg protein
HIF-1α; AG 10.0 mM, 12 h post hypoxia initiation, hypoxia time 4.0 h
  HIF-1α difference from untreated controls: 0.3 pg/mg protein
HIF-1α; AG 10.0 mM, 24 h post hypoxia initiation, hypoxia time 0.5 h
  HIF-1α difference from untreated controls: 1.6 pg/mg protein
HIF-1α; AG 10.0 mM, 24 h post hypoxia initiation, hypoxia time 1.0 h
  HIF-1α difference from untreated controls: 3.8 pg/mg protein
HIF-1α; AG 10.0 mM, 24 h post hypoxia initiation, hypoxia time 2.0 h
  HIF-1α difference from untreated controls: 1 pg/mg protein
HIF-1α; AG 10.0 mM, 24 h post hypoxia initiation, hypoxia time 4.0 h
  HIF-1α difference from untreated controls: 0.1 pg/mg protein
HIF-1α; AG 10.0 mM, hypoxia time 0.5 h
  HIF-1α 12 hours after hypoxia initiation: 5.2 pg/mg protein
  HIF-1α 24 hours after hypoxia initiation: 3.6 pg/mg protein
HIF-1α; AG 10.0 mM, hypoxia time 1.0 h
  HIF-1α 12 hours after hypoxia initiation: 3.9 pg/mg protein
  HIF-1α 24 hours after hypoxia initiation: 3.9 pg/mg protein
HIF-1α; AG 10.0 mM, hypoxia time 2.0 h
  HIF-1α 12 hours after hypoxia initiation: 4.1 pg/mg protein
  HIF-1α 24 hours after hypoxia initiation: 4.1 pg/mg protein
HIF-1α; AG 10.0 mM, hypoxia time 4.0 h
  HIF-1α 12 hours after hypoxia initiation: 5.5 pg/mg protein
  HIF-1α 24 hours after hypoxia initiation: 5.5 pg/mg protein
HIF-1α; Average all doses, 12 h post hypoxia initiation, hypoxia time 0.5 h
  HIF-1α difference from untreated controls: 3.1 pg/mg protein
HIF-1α; Average all doses, 12 h post hypoxia initiation, hypoxia time 1.0 h
  HIF-1α difference from untreated controls: 3.27 pg/mg protein
HIF-1α; Average all doses, 12 h post hypoxia initiation, hypoxia time 2.0 h
  HIF-1α difference from untreated controls: 2.17 pg/mg protein
HIF-1α; Average all doses, 12 h post hypoxia initiation, hypoxia time 4.0 h
  HIF-1α difference from untreated controls: 0.87 pg/mg protein
HIF-1α; Average all doses, 24 h post hypoxia initiation, hypoxia time 0.5 h
  HIF-1α difference from untreated controls: 1.43 pg/mg protein
HIF-1α; Average all doses, 24 h post hypoxia initiation, hypoxia time 1.0 h
  HIF-1α difference from untreated controls: 4.07 pg/mg protein
HIF-1α; Average all doses, 24 h post hypoxia initiation, hypoxia time 2.0 h
  HIF-1α difference from untreated controls: 1.57 pg/mg protein
HIF-1α; Average all doses, 24 h post hypoxia initiation, hypoxia time 4.0 h
  HIF-1α difference from untreated controls: 0.67 pg/mg protein
HIF-1α; at 12 and 24 hours, all durations of hypoxia
  effect on HIF-1α as compared to untreated cells: reduction of HIF-1α
